Test results reported in US5574070A, “Substituted guanidines having high binding to the sigma receptor and the use thereof” (priority 1993, dated 1996).
Structures can show the parent of a compound that is named as a salt. Where two headings read alike, the source gives them in different places. One block for each molecule: values may come before it.

How the values were obtained:
sigma receptor = test: [3H]DTG displacement radioligand binding assay, guinea pig brain membranes
anxiety behavior of mice = test: black:white test box (light/dark exploration) of mice; conditions: for anxiolytic activity: 1 mg/kg
[1] = biological target: T1, sigma receptor from guinea pig brain (Cavia porcellus, UniProt Q60492); test: [3H]AZ-DTG binding and photoaffinity labeling of the sigma receptor; conditions: 10 uM
T1 construct: from tissue; host or cells: guinea pig brain membranes
T1 sequence (Q60492 whole entry): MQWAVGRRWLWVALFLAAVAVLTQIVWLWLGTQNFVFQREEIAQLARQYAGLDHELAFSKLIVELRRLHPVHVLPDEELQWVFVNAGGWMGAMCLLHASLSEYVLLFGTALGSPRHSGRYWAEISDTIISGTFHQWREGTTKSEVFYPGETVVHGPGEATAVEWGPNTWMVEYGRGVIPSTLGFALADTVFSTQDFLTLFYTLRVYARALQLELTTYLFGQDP
Description: The filters were then irradiated with long-wavelength UV light for a 15 minute period. Filter-bound proteins were solubilized with 50 mM Tris pH 7.4, 0.1% sodium dodecyl sulfate. Solubilized proteins were subjected to SDS-polyacrylamide gel electrophoresis.

[3H]MK-801 = [3H]MK-801 displacement binding; conditions: read-out: IC50 vs [3H]MK-801; Table II; ± s.e.m. (n)
[2] = list of especially preferred compounds, read-out: IC50 (high binding to the sigma receptor)
[3] = Example 25, guinea pig brain membrane homogenates, read-out: IC50 binding values
[4] = read-out: IC50 vs [3H]DTG, Table I, guinea pig brain membranes
[5] = read-out: IC50 vs [3H]DTG, Table II, ± s.e.m. (n)

- IC50 (sigma receptor; [2]): 7 nM
Molecule: Cc1ccccc1NC(=N)N[C@H]1C[C@@H]2CC[C@H]1C2 (relative stereo) [N-(exo-2-norbornyl)-N'-(2-methylphenyl)guanidine]
- latency to entering the dark compartment (anxiety behavior of mice; oral): increase in the latency to entering the dark compartment
- numbers of line crossings and/or rears in the light compartment (vs dark) (anxiety behavior of mice; oral): increase in the number of rears in the light compartment
- proportion of time in light area / percentage of time in black compartment (anxiety behavior of mice; oral): decrease in the percentage time spent in the black compartment
- sedation: total numbers of rears and line crossings (anxiety behavior of mice; oral): did not decrease significantly, showing that the drug was not sedative
- latency to entering the dark compartment (anxiety behavior of mice; s.c.): increase in the latency to entering the dark compartment when administered at 0.1 mg/kg
- numbers of line crossings and/or rears in the light compartment (vs dark) (anxiety behavior of mice; s.c.): increase in the number of rears in the light compartment
- sedation: total numbers of rears and line crossings (anxiety behavior of mice; s.c.): did not decrease significantly, showing that the drug was not sedative

- IC50 (sigma receptor; [2]): 8.92 nM
- IC50 (sigma receptor; [5]): 8.92 nM
- IC50 ([3H]MK-801): > 10000 nM
Molecule: N=C(Nc1ccc(F)cc1F)NC12CC3CC(CC(C3)C1)C2 [N-(Adamantan-1-yl)-N'-(2,4-difluorophenyl)guanidine]

- IC50 (sigma receptor; [2]): 4 nM
- IC50 (sigma receptor; [5]): 4.27 nM
- IC50 ([3H]MK-801): 31900 nM
Molecule: N=C(Nc1ccc(F)cc1C(F)(F)F)NC12CC3CC(CC(C3)C1)C2 [N-(Adamantan-1-yl)-N'-(2-trifluoromethyl-4-fluorophenyl)guanidine]

- IC50 (sigma receptor; [2]): 7.44 nM
- IC50 (sigma receptor; [5]): 7.44 nM
- IC50 ([3H]MK-801): 23100 nM
Molecule: N=C(Nc1ccccc1C(F)(F)F)NC12CC3CC(CC(C3)C1)C2 [N-(Adamantan-1-yl)-N'-(2-trifluoromethylphenyl)guanidine]

- IC50 (sigma receptor; [2]): 21.9 nM
- IC50 (sigma receptor; [5]): 21.9 nM
- IC50 ([3H]MK-801): > 10000 nM
Molecule: N=C(Nc1ccc2oc(=O)ccc2c1)NC12CC3CC(CC(C3)C1)C2 [N-(Adamantan-1-yl)-N'-(6-coumarinyl)-guanidine]

- IC50 (sigma receptor; [5]): 43.9 nM
- IC50 ([3H]MK-801): 6700 nM
Molecule: N=C(Nc1cccc2ccc(=O)oc12)NC12CC3CC(CC(C3)C1)C2 [N-(Adamantan-1-yl)-N'-(8-coumarinyl)-guanidine]

- IC50 (sigma receptor; [3]): 5.5 nM
- IC50 (sigma receptor; [2]): 5.5 nM
- IC50 (sigma receptor; [5]): 4.67 nM
- IC50 ([3H]MK-801): 23900 nM
Molecule: Cc1cc(Br)ccc1NC(=N)NC1CCCCC1 [N-Cyclohexyl-N'-(2-methyl-4-bromophenyl)guanidine]
- in vitro [3H]DTG displacement activity (sigma receptor): found to possess the aforesaid in vitro [^3 H]DTG displacement activity

- IC50 (sigma receptor; [3]): 13 ± 1 nM
- IC50 (sigma receptor; [2]): 13 nM
- IC50 (sigma receptor; [4]): 17 ± 5 nM
Molecule: Cc1ccccc1NC(=N)NC1CCCCC1 [N-Cyclohexyl-N'-(2-methylphenyl)guanidine]
- in vitro [3H]DTG displacement activity (sigma receptor): found to possess the aforesaid in vitro [^3 H]DTG displacement activity
- latency to entering the dark compartment (anxiety behavior of mice; oral): slight increase in the latency to entering the dark compartment
- numbers of line crossings and/or rears in the light compartment (vs dark) (anxiety behavior of mice; oral): increase in the total numbers of rears in the light compartment
- proportion of time in light area / percentage of time in black compartment (anxiety behavior of mice; oral): significant decrease in the percentage of time in the black compartment
- sedation: total numbers of rears and line crossings (anxiety behavior of mice; oral): did not change significantly, showing that the compound was not sedative
- latency to entering the dark compartment (anxiety behavior of mice; s.c.): increase in the latency to entering the dark compartment
- numbers of line crossings and/or rears in the light compartment (vs dark) (anxiety behavior of mice; s.c.): increased in a dose-dependent manner at the expense of those in the dark compartment
- proportion of time spent in the lighted area (anxiety behavior of mice; s.c.): increases significantly the proportion of time the mice spent in the larger, lighted area
- sedation: total numbers of rears and line crossings (anxiety behavior of mice; s.c.): did not decrease significantly, showing that the drug was not sedative

- displacement of [3H]DTG (sigma receptor; 10 uM): no significant displacement
Molecule: CNC(=N)N [methyl-guanidine, reference compound]

- IC50 (sigma receptor; [3]): 233 ± 52 nM
Molecule: O=C1CC2(CCCC2)CC(=O)N1CCCCN1CCN(c2nsc3ccccc23)CC1 [tiospirone, reference compound]

Continued, molecule first:

Molecule: N=C(Nc1ccccc1I)N[C@@H]1C[C@@H]2CC[C@H]1C2 (relative stereo) [N-((±)-endo-2-norbornyl)-N'-(2-iodophenyl)guanidine]
- IC50 (sigma receptor; [2]): 5 nM
- latency to entering the dark compartment (anxiety behavior of mice; oral): increase in the latency to entering the dark compartment
- numbers of line crossings and/or rears in the light compartment (vs dark) (anxiety behavior of mice; oral): increase in the number of rears in the light compartment
- proportion of time in light area / percentage of time in black compartment (anxiety behavior of mice; oral): decrease in the percentage time spent in the black compartment
- sedation: total numbers of rears and line crossings (anxiety behavior of mice; oral): did not decrease significantly, showing that the drug was not sedative
- latency to entering the dark compartment (anxiety behavior of mice; s.c.): dose-dependent increase in the latency to entering the dark compartment
- numbers of line crossings and/or rears in the light compartment (vs dark) (anxiety behavior of mice; s.c.): significant dose-dependent increase in the number of rears in the light compartment
- sedation: total numbers of rears and line crossings (anxiety behavior of mice; s.c.): did not decrease significantly, showing that the drug was not sedative

Molecule: NCCc1c[nH]c2ccc(O)cc12 [5-OH-tryptamine, reference compound]
- displacement of [3H]DTG (sigma receptor; 10 uM): no significant displacement
- effect on [3H]AZ-DTG labeling of the 29 kD polypeptide [1]: unaffected

Molecule: N=C(NC1CCCCC1)NC12CC3CC(CC(C3)C1)C2 [AdChG, N, Adamantan-1-yl-N'-cyclohexylguanidine HCl]
- in vitro [3H]DTG displacement activity (sigma receptor): found to possess the aforesaid in vitro [^3 H]DTG displacement activity
- IC50 (sigma receptor; [3]): 12.5 ± 2.2 nM
- IC50 (sigma receptor; [2]): 12.5 nM
- IC50 (sigma receptor; [4]): 13 ± 2 nM
- latency to entering the dark compartment (anxiety behavior of mice; s.c.): dose-dependent increase in the latency to entering the dark compartment
- numbers of line crossings and/or rears in the light compartment (vs dark) (anxiety behavior of mice; s.c.): increase in the number of rears in the light compartment
- sedation: total numbers of rears and line crossings (anxiety behavior of mice; s.c.): did not change significantly, showing that the drug was not sedative

Molecule: Cl.N=C(Nc1ccccc1I)NC12CC3CC(CC(C3)C1)C2 [AdIpG, N-(Adamantan-1-yl)-N'-(2-iodophenyl)guanidine HCl]
- in vitro [3H]DTG displacement activity (sigma receptor): found to possess the aforesaid in vitro [^3 H]DTG displacement activity
- IC50 (sigma receptor; [3]): 6.2 ± 0.7 nM
- IC50 (sigma receptor; [2]): 6.2 nM
- IC50 (sigma receptor; [4]): 5 ± 1 nM
- latency to entering the dark compartment (anxiety behavior of mice; oral): increase in the latency to entering the dark compartment
- numbers of line crossings and/or rears in the light compartment (vs dark) (anxiety behavior of mice; oral): increase in the numbers of line crossings and rears in the light compartment
- sedation: total numbers of rears and line crossings (anxiety behavior of mice; oral): did not decrease significantly
- anxiolytic activity (anxiety behavior of mice; oral): have anxiolytic activity when orally administered
- latency to entering the dark compartment (anxiety behavior of mice; s.c.): increased in a dose-dependent manner
- numbers of line crossings and/or rears in the light compartment (vs dark) (anxiety behavior of mice; s.c.): increased at the expense of those in the dark compartment
- proportion of time spent in the lighted area (anxiety behavior of mice; s.c.): increased, in a dose-dependent manner, the proportion of time the mice spent in the larger, lighted area
- sedation: total numbers of rears and line crossings (anxiety behavior of mice; s.c.): did not decrease significantly showing that the drug was not sedative at this level

Molecule: N=C(NC12CC3CC(CC(C3)C1)C2)NC12CC3CC(CC(C3)C1)C2 [DAG, N,N'-di-(adamantan-1-yl)guanidine]
- in vitro [3H]DTG displacement activity (sigma receptor): found to possess the aforesaid in vitro [^3 H]DTG displacement activity
- IC50 (sigma receptor; [3]): 11.8 ± 3.4 nM
- IC50 (sigma receptor; [2]): 16.5 nM
- IC50 (sigma receptor; [4]): 17 ± 3 nM
- latency to entering the dark compartment (anxiety behavior of mice; oral): increase in the latency to entering the dark compartment
- numbers of line crossings and/or rears in the light compartment (vs dark) (anxiety behavior of mice; oral): increase in the numbers of line crossings and rears in the light compartment
- sedation: total numbers of rears and line crossings (anxiety behavior of mice; oral): did not decrease significantly
- anxiolytic activity (anxiety behavior of mice; oral): have anxiolytic activity when orally administered
- numbers of line crossings and/or rears in the light compartment (vs dark) (anxiety behavior of mice; s.c.): increased at the expense of those in the dark compartment
- proportion of time spent in the lighted area (anxiety behavior of mice; s.c.): tended to increase the proportion of time the mice spent in the larger, lighted area
- sedation: total numbers of rears and line crossings (anxiety behavior of mice; s.c.): did not decrease significantly showing that the drug was not sedative at this level

Molecule: CC12CC3CC(C)(C1)CC(/N=C(\N)Nc1ccccc1/C=C/c1ccccc1)(C3)C2 [Example F-114-B, N-(3,5-dimethyladamantan-1-yl)-N'-[(E)-2-phenylethenyl]phenylguanidine]
- sedation: total numbers of rears and line crossings (anxiety behavior of mice; s.c.): did not decrease significantly showing that the drug was not sedative at this level

Molecule: NCCCC(=O)O [GABA, γ-aminobutyric acid, reference compound]
- displacement of [3H]DTG (sigma receptor; 10 uM): no significant displacement
- effect on [3H]AZ-DTG labeling of the 29 kD polypeptide [1]: unaffected

Molecule: N=C(Nc1cccc2c1CCC2)Nc1cccc2c1CCC2 [N,N'-Di-(4-indanyl)-guanidine]
- IC50 (sigma receptor; [2]): 28.5 nM
- IC50 (sigma receptor; [5]): 28.5 nM
- IC50 ([3H]MK-801): 506 nM

Molecule: N=C(Nc1ccccc1I)Nc1cccc2ccccc12 [N-(1-Naphthyl)-N'-(2-iodophenyl)-guanidine]
- IC50 (sigma receptor; [2]): 40.1 nM
- IC50 (sigma receptor; [5]): 40.1 nM
- IC50 ([3H]MK-801): 209 nM

Molecule: N=C(Nc1ccccc1I)Nc1ccccc1C=Cc1ccccc1 [N-(2-styrylphenyl)-N'-(2-iodophenyl)guanidine]
- latency to entering the dark compartment (anxiety behavior of mice; i.p.): decreased the latency to entering the dark compartment
- numbers of line crossings and/or rears in the light compartment (anxiety behavior of mice; i.p.): did not affect the numbers of line crossings or rears in the light compartment
- proportion of time in light area / percentage of time in black compartment (anxiety behavior of mice; i.p.): No significant change in the percentage time in the black compartment

Molecule: NCCc1ccc(O)c(O)c1 [dopamine, reference compound]
- displacement of [3H]DTG (sigma receptor): no significant displacement
- effect on [3H]AZ-DTG labeling of the 29 kD polypeptide [1]: unaffected

Molecule: C=CCN1CC[C@]23c4c5ccc(O)c4O[C@H]2C(=O)CC[C@@]3(O)[C@H]1C5 [naloxone, reference compound]
- displacement of [3H]DTG (sigma receptor; 10 uM): no significant displacement

Molecule: beta-endorphin [reference compound]
- displacement of [3H]DTG (sigma receptor; 10 uM): no significant displacement

Molecule: dynorphin A [reference compound]
- displacement of [3H]DTG (sigma receptor; 10 uM): no significant displacement

Molecule: picrotoxin [reference compound]
- displacement of [3H]DTG (sigma receptor; 10 uM): no significant displacement
